Measurements taken from US8399497B2, “Thiazole derivatives and use thereof” (Merck Serono SA, priority 2005, dated 2013).
Read-outs that look alike come from different tables or passages of the source.

How the values were obtained:
[1] = system: PI3K induced Akt/PKB phosphorylation in Raw 264-7 macrophages; assay: Cell based ELISA of Akt/PKB phosphorylation in macrophages after Complement 5a stimulation; conditions: Mus musculus, RAW264.7, 5 min, 50 nM Complement 5a for 5 minutes, read-out: Cell Assay (P-Akt, Elisa) IC50
Method: b) Cell Based ELISA to Monitor PI3K Inhibition:
The efficacy of compounds of the invention in inhibiting the PI3K induced Akt/PKB phosphorylation may be tested in the following cell based assay.
Measurement of Akt/PKB phosphorylation in macrophages after stimulation with Complement 5a: Raw 264: Raw 264-7 macrophages (cultured in DMEM-F12 medium containing 10% Fetal Calf serum and antibiotics) are plated at 20,000 cells/well in a 96 MTP 24 h before cell stimulation. Prior to the stimulation with 50 nM of Complement 5a during 5 minutes, Cells are serum starved for 2 h, and pretreated with inhibitors for 20 minutes. After stimulation cells are fixed in 4% formaldehyde for 20 minutes and washed 3 times in PBS containing 1% Triton X-100 (PBS/Triton). Endogenous peroxidase is blocked by a 20 minutes incubation in 0.6% H2O2 and 0.1% Sodium Azide in PBS/Triton and washed 3 times in PBS/Triton. Cells are then blocked by 60 minutes incubation with 10% fetal calf serum in PBS/Triton. Next, phosphorylated Akt/PKB is detected by an overnight incubation at 4° C. with primary antibody (anti phospho Serine 473 Akt IHC, Cell Signaling) diluted 800-fold in PBS/Triton, containing 5% bovine serum albumin (BSA). After 3 washes in PBS/Triton, cells are incubated for 60 minutes with a peroxidase conjugated goat-anti-rabbit secondary antibody (1/400 dilution in PBS/Triton, containing 5% BSA), washed 3 times in PBS/Triton, and 2 times in PBS and further incubated in 100 μl of luminescent substrate reagent solution (Pierce) for 2 minutes, followed by the reading (1 s/well).
The values indicated in Table III below reflect the percentage of inhibition of AKT phoshorylation as compared to basal level. Said values show a clear effect of the thiazole compounds on the activation of AKT phosphorylation in macrophages.

[2] = biological target: Human recombinant GST-PI3Kγ (Homo sapiens, UniProt P48736); assay: High throughput PI3K lipid kinase assay (SPA, neomycin-coated beads); type: biochemical
Text: a) High Throughput PI3K Lipid Kinase Assay (Binding Assay):
The efficacy of compounds of the invention in inhibiting the PI3K induced-lipid phosphorylation may be tested in the following binding assay.
The assay combines the scintillation proximity assay technology (SPA, Amersham) with the capacity of neomycin (a polycationic antibiotic) to bind phospholipids with high affinity and specificity. The Scintillation Proximity Assay is based on the properties of weakly emitting isotopes (such as ^3H, ^125I, ^33P). Coating SPA beads with neomycin allows the detection of phosphorylated lipid substrates after incubation with recombinant PI3K and radioactive ATP in the same well, by capturing the radioactive phospholipids to the SPA beads through their specific binding to neomycin.
To a 384 wells MTP containing 5 μl of the test compound of Formula (I) (solubilized in 6% DMSO; to yield a concentration of 100, 30, 10, 3, 1, 0.3, 0.1, 0.03, 0.01, 01 μM of the test compound), the following assay components are added. 1) 5 μl (58 ng) of Human recombinant GST-PI3Kγ (in Hepes 40 mM, pH 7.4, DTT 1 mM and ethylenglycol 5%) 2) 10 μl of lipid micelles and 3) 10 μl of Kinase buffer ([^33P]γ-ATP 45 μM/60 nCi, MgCl2 30 mM, DTT 1 mM, β-Glycerophosphate 1 mM, Na3VO4 100 μM, Na Cholate 0.3%, in Hepes 40 mM, pH 7.4). After incubation at room temperature for 180 minutes, with gentle agitation, the reaction is stopped by addition of 60 μl of a solution containing 100 μg of neomycin-coated PVT SPA beads in PBS containing ATP 10 mM and EDTA 5 mM. The assay is further incubated at room temperature for 60 minutes with gentle agitation to allow binding of phospholipids to neomycin-SPA beads. After precipitation of the neomycin-coated PVT SPA beads for 5 minutes at 1500×g, radioactive PtdIns(3)P is quantified by scintillation counting in a Wallac MicroBeta™ plate counter.
The values indicated in Table II below refer to the IC50 (μM) with respect to PI3Kγ, i.e. the amount necessary to achieve 50% inhibition of said target. Said values show a considerable inhibitory potency of thiazole compounds with regard to PI3Kγ.

[3] = system: Neutrophil recruitment; assay: Thioglycollate-induced peritoneal cavity cell recruitment model, neutrophils; type: in vivo, C3H mice; conditions: 10 mg/kg orally, lavage 4 h after thioglycollate
Method: (§1) Thioglycollate-Induced Pertioneal Cavity Cell Recruitment Model
(§2) The in vivo efficacy of compounds of the invention in inhibiting the migration of leukocytes upon intraperitoneal challenge of thioglycollate may be tested with the following assay.
(§3) 8-10 weeks old female C3H mice are fasted during 18 hours. 15 minutes prior the intraperitoneal injection of thioglycollate (1.5%, 40 ml/kg), the mice are treated orally with Thiazoles of Formula (I). Control mice receive CMC/Tween as vehicle (10 ml/kg). The mice are then sacrificed by CO2 inhalation and the peritoneal cavity is washed two times with 5 ml of ice-cold PBS/1 mM EDTA. The lavages are done 4 hours or 48 hours after thioglycollate challenge to evaluate neutrophils or macrophages recruitment, respectively. The white blood cells (neutrophils, lymphocytes or macrophages) are counted using a Beckman Coulter® A ^cT 5diff™. Dexamethasone is used as reference drug.

[4] = system: Macrophage recruitment; assay: Thioglycollate-induced peritoneal cavity cell recruitment model, macrophages; type: in vivo, C3H mice; conditions: 10 mg/kg orally, lavage 48 h after thioglycollate
Method: as §1, §2, §3

[5] = system: Collagen-induced arthritis; assay: Collagen-induced arthritis, CIA (mouse); type: in vivo, DBA/1 mice; conditions: twice a day, 7 days

Chain of Human recombinant GST-PI3Kγ (P48736 whole entry): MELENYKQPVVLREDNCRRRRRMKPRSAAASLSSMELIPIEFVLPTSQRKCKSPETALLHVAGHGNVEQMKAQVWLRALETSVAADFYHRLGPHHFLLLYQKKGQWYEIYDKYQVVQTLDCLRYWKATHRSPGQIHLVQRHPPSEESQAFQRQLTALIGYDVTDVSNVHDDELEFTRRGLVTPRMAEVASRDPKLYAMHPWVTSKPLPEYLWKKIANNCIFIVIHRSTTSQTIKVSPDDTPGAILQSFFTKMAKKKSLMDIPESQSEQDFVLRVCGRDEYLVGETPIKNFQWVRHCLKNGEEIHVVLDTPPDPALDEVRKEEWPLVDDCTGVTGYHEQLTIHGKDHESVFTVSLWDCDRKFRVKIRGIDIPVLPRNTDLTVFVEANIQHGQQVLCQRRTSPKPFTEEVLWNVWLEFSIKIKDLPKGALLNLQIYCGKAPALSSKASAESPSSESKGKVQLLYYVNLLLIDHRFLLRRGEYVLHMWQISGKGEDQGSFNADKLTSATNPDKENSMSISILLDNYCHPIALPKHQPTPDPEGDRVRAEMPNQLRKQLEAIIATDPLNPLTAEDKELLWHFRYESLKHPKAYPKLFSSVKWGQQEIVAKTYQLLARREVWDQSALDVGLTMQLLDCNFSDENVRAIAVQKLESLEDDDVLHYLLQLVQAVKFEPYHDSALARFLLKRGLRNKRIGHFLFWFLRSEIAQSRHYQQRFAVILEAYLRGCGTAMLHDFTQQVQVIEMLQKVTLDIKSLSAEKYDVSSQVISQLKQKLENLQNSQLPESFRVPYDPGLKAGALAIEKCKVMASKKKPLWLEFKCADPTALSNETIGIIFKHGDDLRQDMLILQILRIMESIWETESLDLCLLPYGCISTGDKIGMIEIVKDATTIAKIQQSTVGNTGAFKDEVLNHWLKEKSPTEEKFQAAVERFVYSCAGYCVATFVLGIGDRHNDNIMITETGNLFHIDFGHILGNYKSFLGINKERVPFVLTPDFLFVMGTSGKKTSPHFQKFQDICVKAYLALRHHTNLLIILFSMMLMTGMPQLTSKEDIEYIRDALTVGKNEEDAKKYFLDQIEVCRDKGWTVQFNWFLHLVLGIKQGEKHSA

SMILES	IC50 [1] [nM]	IC50 [2] [nM]	% inhibition of Neutrophil recruitment at 10 mg/kg after 4 h [3] [%]	% inhibition of Macrophage recruitment at 10 mg/kg after 48 h [4] [%]	IC50 ([1]; re-testing) [nM]	Reduction of total clinical score [%] ([5]; 10 mg/kg orally)	Reduction of total clinical score [%] ([5]; 30 mg/kg orally)	Reduction of total clinical score [%] ([5]; 60 mg/kg orally)
CC(=O)Nc1nc(C)c(-c2ccc(S(=O)(=O)NCCCN(C)C)s2)s1 [Example 10, N-{5-[5-({[3-(dimethylamino)propyl]amino}sulfonyl)-2-thienyl]-4-methyl-1,3-thiazol-2-yl}acetamide]	1290	289	58	–	–	–	–	–
CC(=O)Nc1nc(C)c(-c2csc(S(=O)(=O)N3CCC(O)CC3)c2)s1 [Example 39, N-(5-{5-[(4-hydroxypiperidin-1-yl)sulfonyl]-3-thienyl}-4-methyl-1,3-thiazol-2-yl)acetamide]	50	14	48	43	320	30	50	75
